Test results reported in PMC9643865, “Bromo-protopine, a novel protopine derivative, alleviates tau pathology by activating chaperone-mediated autophagy for Alzheimer’s disease therapy” (Frontiers in Molecular Biosciences, 2022).

Experiments:
[1] = test system: SHSYP301L cells; assay: Immunoblotting of tau, Ac-α-tubulin and chaperones in tau-overexpressing cells; type: cell-based
Procedure: (§1) SHSY5Y cells stably-expressing mutant tau (SHSYP301L) were cultured in DMEM/F12 + 15% FBS, 3 μg/ml Blasticidin S HCl, and 1X PSN. N2A mouse neuroblastoma and mouse hippocampal neuronal (HT22) cells were cultured in DMEM+10% FBS, and 1X PSN. Sterile complete medium containing PRO-Br was added to the cells, and they were then incubated for 24 h at an optimum temperature of 37°C in a sterile 5% CO2 incubator.
(§2) After PRO-Br treatment, cells were solubilised using cold RIPA lysis buffer (9803, Life Technologies), containing protease and phosphatase inhibitor tablets. Cells were sonicated and centrifuged at 14000 rpm for 15 min. Total protein concentration was determined by BCA protein assay, and the samples were separated on SDS-PAGE and transferred to PVDF membranes. The membranes were blocked, washed, and incubated with primary antibodies (Table 1), and incubated at 4°C, overnight. The membranes were further incubated with the required dilutions of secondary antibody for 1 h, at RT. The chemiluminescent signals were captured using x-ray film in a darkroom, with an appropriate chemiluminescent substrate kit (ThermoFisher Scientific, United States). Films were scanned, and the relative intensities of the signals were analyzed using ImageJ software.

[2] = test system: HT22 cells; assay: LAMP2A / HSC70 immunocytochemistry and immunoblotting; type: cell-based, mouse
Procedure: as §1, §2
HT22 cells were cultured in sterile 24-well culture dishes containing 14 mm cover-glass. Cells were treated with PRO-Br (12.5 and 25 μM), and DMSO (0.1%), for 24 h. Cells were fixed with paraformaldehyde (4%), permeabilized with triton-X-100 (0.1%), and blocked with BSA (2%). LAMP2A antibody (1:500), and HSC70 antibody (1:500) was added to the processed cells and incubated overnight at four°C. Alexa Fluor® 488 (green) and Alexa Fluor® 594 (red) secondary antibodies (1:400) were added and incubated for 1.5 h at room temperature. FluorSave reagent (Merck Millipore, United States) was added, then cover-slipped, and images were captured by a Leica confocal imaging system.

[3] = test system: N2A cells; assay: LAMP2A / HSC70 expression; type: cell-based, mouse; conditions: compared to Trehalose (positive control)
Procedure: as §1, §2

[4] = test system: 3xTg-AD mice; assay: Golgi staining of dendritic spines; type: in vivo; conditions: oral, 8 months
Procedure: (§3) Female homozygous 3xTg-AD mice carrying transgenes for APP (Swedish KM670/671Nl), MAPT (tauP301L) and Psen1 (M146V) were procured from Jackson’s Laboratory (# 004807). The transgenic mice colonies were bred and maintained in the HKBU animal house at 23 ± 2 °C, 60 ± 15% relative humidity with regular access to food and water. Seven-month-old 3xTg-AD mice were randomly segregated into three treatment groups: Tg-Vehicle, 1 mg/kg, and 2.5 mg/kg PRO-Br. PRO-Br was administered orally for 8 months (n = 8). The bodyweight of mice from all the groups was recorded once every week.
FD Rapid Golgi Stain Kit was employed to determine the dendritic spine density in the 3xTg-AD mice brains and was performed according to procedure described previously ([Iyaswamy et al., 2022]). Briefly, mice were perfused using 4% PFA, and the brains were dissected carefully to avoid damage. Next, the brain samples were frozen by dipping in isopentane solution (on dry ice). The frozen brains were sectioned at 150 μm thickness using a Shandon Cryotome SME Cryostat (Ramsey, MN, United States). The tissue slices were carefully mounted onto glass slides and stained with the kit reagents in accordance with the manufacturer’s procedure. The dendritic images were acquired by Leica confocal microscope. […]

[5] = test system: 3xTg-AD mice; assay: Morris water maze test; type: in vivo; conditions: oral, 1 and 2.5 mg/kg, 8 months
Procedure: as §3
To determine the memory functions of experimental mice, the Morris water maze test was performed according to the procedure described previously ([Iyaswamy et al., 2020]). Mice training preliminary to the probe trail was performed in two phases. The first phase, known as the visible-platform training, comprised four trials, for 1 day. In each trial, a platform was placed in the tank, 1 cm below the surface of the (clear) water. The mouse was introduced, and the time required for the mouse to find the platform was recorded. The position of the platform was changed for every trial. […] The distance travelled (cm) to reach the platform in the target quadrant was observed and recorded by a video tracking method (Ethovision, Noldus Information Technology, Version 3).

[6] = test system: P301S mice; assay: Contextual fear conditioning test; type: in vivo; conditions: oral, 2.5 months
Procedure: Female homozygous P301S mice bearing the transgene for MAPT (P301S), were generous gifts from Michael Goedert. P301S-tau mice (1.5-month-old, n = 8) were administered with PRO-Br daily for 2.5 months. The mice models employed in the study were maintained under 12 h light-dark cycles and were provided ad libitum access to chow and water.
After treating P301S mice with PRO-Br, fear memory consolidation was evaluated by the contextual fear conditioning (CFC) test. The experimental set-up consisted of two individual sound-proof chambers, each having an electric grid on the surface. Inside each chamber, a speaker was attached to introduce a cue tone. The movement of the mice was observed and recorded by ANY maze tracking software on a laptop. The experiment was performed with a continuous white noise (40 units) and white light (40 lux). On the first day of the training session, mice were introduced into the chamber and permitted to explore for 2.5 min. Next, each mouse received three consecutive foot shock cycles; each started with a 28 s cue tone (1,500 Hz) and finished with a 2 s foot shock ([…]). On the second day, the mice were allowed to explore the grid for 3 min, after which they received a cue tone for 30 s without foot shock, and the freezing time was recorded.

CN1CCc2cc3c(cc2C(=O)Cc2c(Br)cc4c(c2C1)OCO4)OCO3 [PRO-Br, bromo-protopine]
PHF1 and TAU5 levels ([1]; 24 h): simultaneously reducing PHF1 and TAU5 levels
expression of HSP70 ([1]; 24 h): significantly and dose-dependently augmented the expression of HSP70
acetylation of α-tubulin ([1]; compared to PRO): enhanced the acetylation of α-tubulin
PHF1 degradation on co-treatment with CMA/lysosomal protease inhibitors E64D and pepstatin ([1]; compared to PRO-Br treatment alone): significantly blocked the degradation of PHF1 levels
tau/PHF1-reducing activity ([1]; preliminary screening): good tau/PHF1-reducing activity
PHF1 degradation on co-treatment with MG132, Wortmannin or Chloroquine ([1]; proteasome, autophagy or lysosome inhibitor co-treatment): did not block PRO-Br-mediated PHF1 degradation
expression of LAMP2A ([2]; immunocytochemistry, 12.5 and 25 μM, 24 h): distinctly enhanced the expression of LAMP2A in a dose-dependent manner
interaction between HSC70 and LAMP2A ([2]; immunofluorescence): markedly enhanced the interaction between HSC70 and LAMP2A
expression of LAMP2A and HSC70 [3]: increased expression of LAMP2A and HSC70
dendritic spine structures (thin, stubby and mushroom-like) in the hippocampus [4]: significantly enhanced the dendritic spine structures
learning and memory impairment (Morris water maze) [5]: significantly reversed the learning and memory impairment
freezing percentage (CFC) [6]: significant increase in freezing percentage
